Results on four compounds are retold here after patent US7786042B2, “Fluridone as an anti-inflammatory agent” (Universita' Degli Studi Di Genova, priority 2005, dated 2010).

Holding throughout (type): cell-based
The test system of assay [1] is human granulocytes. In words: Intracellular calcium [Ca2+]i in granulocytes. Here is the method: Granlocytes were isolated by density gradient centrifugation from the peripheral blood of healthy donors, after informed consent. Contaminating erythrocytes were removed by hypotonic lysis. […] The increase of [cADPR]i in turn induces a progressive rise of [Ca^2+]i, from a basal value of 50±2 nM to 170±25 nM after 10 min from the addition of 10 μM ABA (n=4). […] The increase of the [Ca^2+]i induced by ABA in granulocytes is in turn responsible for activation of several functional activities typical of these cells. The functional effects induced by ABA (at concentrations ranging between 0.2 and 20 μM) in granulocytes include stimulation of the production of reactive oxygen species (ROS), measured through the cytochrome c […] (FIG. 2A), and of nitric oxide (NO), measured as accumulation of nitrite, the end-product of NO […] (FIG. 2B).

Assay [2] relates to human granulocytes. In words: Chemotaxis and chemokinesis of granulocytes.
Method: Assays were performed using 96-well ChemoTx system microplates with a 3-μm pore size polycarbonate filter (NeuroProbe Inc., Gaithersburg, USA). Cells (granulocytes or murine microglia) were resuspended at 10^7/ml in HBSS, PBS and 5% albumin, 39:16:1 (chemotaxis buffer, CB). In order to evaluate the chemoattractant effect of ABA, hormone concentrations ranging from 50 nM to 20 μM were added in CB in the bottom wells and 25 μl cell suspensions were placed on top of the filter. To evaluate a possible stimulatory effect of ABA on spontaneous cell movements (chemokinesis), cells were pre-incubated with or without 20 μM ABA, then washed and placed on top of the filter, in contact with CB. Plates were incubated at 37° C. for 60 min and transmigrated cells were recovered and quantified by fluorimetric assay with Cytox Green. The number of transmigrated cells was calculated by comparison of the measured fluorescence with that of a standard curve, obtained by directly placing a serial dilution of cells in the bottom wells. The results of the chemotaxis experiments are expressed as “chemotaxis index” (CI): CI=number of cells migrated towards chemoattractant/number of cells migrated towards CB
The test system of assay [3] is human granulocytes. In words: NO release by granulocytes (nitrite, Griess). A general note: Nitrite, measured by Griess reagent, commonly stands in for NO production.
Method: Granulocytes were resuspended at 5×10^6/ml in HBSS and 225 μl of the cell suspension were added to 50 μl of 0.2 mM cytochrome c and were incubated for 30 min at 37° C. in the absence (control) or in the presence of 250 nM or 20 μM ABA, the latter concentration without or with 1 mM EDTA, 20 mM nicotinamide or 0.1 mM 8-Br-cADPR. […] The results are expressed as the production relative to control cells, not stimulated with ABA, and are the mean ±SD from 5 experiments.
The method used to determine NO released from the cells into the medium exploits the spontaneous conversion of NO to nitrates and the subsequent enzymatic reduction of nitrates to nitrites by the enzyme nitrate reductase. […] Granulocytes (60×10^6/well) or murine microglia cells N9 (2×10^5/well) were incubated in 24-well plates for 60 min at 37° C. in the presence of ABA at different concentrations. The supernatants were then centrifuged and diluted with an equal volume of Griess reagent (0.1% naphthyl-ethylenediamine dihydrochloride in distilled water, 1% sulphanylamide in 5% concentrated H3PO4). Absorbance at 545 nm was estimated after 10 min and the nitrite concentration was calculated using a standard curve, generated in parallel with known amounts of NaNO2.
The subject of assay [4] is human granulocytes. In words: ROS production by granulocytes (cytochrome c assay).
Method: Granulocytes were resuspended at 5×10^6/ml in HBSS and 225 μl of the cell suspension were added to 50 μl of 0.2 mM cytochrome c and were incubated for 30 min at 37° C. in the absence (control) or in the presence of 250 nM or 20 μM ABA, the latter concentration without or with 1 mM EDTA, 20 mM nicotinamide or 0.1 mM 8-Br-cADPR. The amount of ROS (panel A) or of NO (panel B) in the cell supernatant was measured as described in Materials and Methods. The results are expressed as the production relative to control cells, not stimulated with ABA, and are the mean ±SD from 5 experiments.
Release of superoxide (O2^−) by human granulocytes was quantified by a spectrophotometric assay of cytochrome c reduction (Cohen, J Clin Invest 1978). Granulocytes were resuspended in HBSS (at 5×10^6 cells/ml) and 225 μl of the cell suspension was incubated for 30 min at 37° C. with 50 μl cytochrome c (0.2 mM) in the absence (control) or in the presence of ABA at different concentrations. Then, cells were centrifuged at 5,000×g for 15 s and the absorbance of the supernatants was recorded at 550 nm (λmax for reduced cytocrome c).

`N=c1c2nc(Br)n3c2ncn1C1OC(COP(=O)(O)OP(=O)(O)OCC2OC3C(O)C2O)C(O)C1O` (stereo not shown) [8-Br-cADPR, reference compound]: the “inhibition of the ABA-induced increase of [Ca2+]i” value in the assay with human granulocytes [1] is recorded as “approx. 60%”. In addition, in the assay with human granulocytes [2], the “effect on ABA-induced chemokinesis and chemotaxis” value is recorded as “inhibited”. Further, in the assay on human granulocytes [3], the “effect on ABA-induced NO production” value was “inhibited”. The “effect on ABA-induced ROS production” value with human granulocytes [4] is “inhibited”.

Take `O=C(O)CN(CCN(CC(=O)O)CC(=O)O)CC(=O)O` [EDTA, reference compound]: the “effect on ABA-induced NO production” value with human granulocytes [3] is “inhibited”. Besides, the “effect on ABA-induced ROS production” value with human granulocytes [4] is listed as “inhibited”.

Regarding `O=C(O)CN(CCOCCOCCN(CC(=O)O)CC(=O)O)CC(=O)O` [EGTA], in the assay with human granulocytes [1], the “effect on the ABA-induced increase of [Ca2+]i” value is recorded as “almost completely prevents”.

Take `NC(=O)c1cccnc1` [nicotinamide, reference compound]: the “effect on ABA-induced chemokinesis and chemotaxis” value in the assay with human granulocytes [2] is given as “inhibited”. Besides, the “effect on ABA-induced NO production” value in the assay with human granulocytes [3] is reported as “inhibited”. Moreover, the “effect on ABA-induced ROS production” value in the assay with human granulocytes [4] is recorded as “inhibited”.
